{"source": "patent US20230065158A1", "about": "“OXABICYCLOHEPTANES FOR TREATMENT OF SMALL CELL LUNG CANCER” (Lixte Biotechnology, Inc., priority 2021, published 2023)", "key": {"[1]": {"test_system": "H446 cells", "settings": "human, 72 h", "excerpt": "To determine specific cytotoxicity, we used Cell Counting Kit-8 (Dojindo Molecular Technologies, Rockville, Md.) as previously described (50)."}, "[2]": {"test_system": "H69 cells", "experiment": "BiOLOG Phenotype Microarray carbon substrate utilization", "assay_type": "cell-based", "settings": "LB100 20 μM overnight", "text": "FIGS. 4A-4F depict a reactome pathway analysis of PamGene PTKs and STKs after LB-100 treatment of H524 cells and Biolog phenotype MicroArray. […] Table includes 10 carbon sources affected by LB-100 (n=3). […] P<0.001 (***) for control (untreated cells) vs. LB-100. FIG. 4D: Amplex Red Glucose/Oxidase assay kit was used to measure glucose level in cell culture media. […] Glucose concentration detected in initial medium and counted as 100%. Subtracting final medium level of glucose from initial glucose medium concentration yielded % glucose in the medium with cells (n=3). Effect of LB-100 on MET phosphorylation. FIG. 4E: H524 and H69 cells were treated overnight with LB-100 (H524—5 μM and H69—20 μM) following by stimulation with 100 ng/ml HGF in 10 min. Cells were collected and lysed for WB analysis with pMET and total MET antibody. Pan-actin was used as loading control (n=3). FIG. 4F: H524 cell lysates (control, LB-100, carboplatin and combination (LB-100/carboplatin) were analyzed by western blots to check phosphorylation status of MET at Ser985 and Tyr1234/1235. Actin was used as a loading control (n=3). […]\nPhenotype Microarrays (PMs) use a patented redox chemistry, employing cell respiration as a universal reporter. […] The redox assay provides for both amplification and precise quantitation of phenotypes. […]"}, "[3]": {"test_system": "H524 and H69 cells", "experiment": "Whole cell Pt accumulation, ICP-MS", "assay_type": "cell-based", "settings": "LB100 pretreatment then carboplatin 4 hours, versus carboplatin alone", "description": "FIGS. 3A-3H depict SCLC cell invasion through HUVEC monolayer. FIGS. 3A-3D: Graphical representation of H524/H69 cell ability to disrupt a confluent HUVEC monolayer using an electrical substrate-impedance sensing system. Arrows indicate time point when cells were added. Inserts show mean values and SD for each group after 20 h of drug treatment. After treatment, cell viability was counted using an Auto T4 Cell Counter (Nexcelom Cellometer). Cell viability was 90-95% for drug-treated groups (n=2). p<0.001 (***) for control (untreated cells) vs. drug combination (LB100/carboplatin). Whole cell Pt accumulation. Graphical representation of LB-100 effect on platinum uptake by SCLC cells. […]\nTo this end, platinum (Pt) levels were measured in H524 and H69 cells using Inductively Coupled Plasma Mass Spectrometry (ICP-MS). […]\nSamples were prepared and analyzed for Pt concentrations at the Isotoparium (California Institute of Technology), using precleaned Teflon beakers (PFA), Optima grade reagents (Fisher Chemical) and 18.2 MΩ Milli-Q water. […] All samples were analyzed using an iCAP RQ (ThermoFisher, Waltham, Mass.) ICP-MS and an SC-2 DX autosampler (Elemental Scientific, Omaha, Nebr.). […] A Pt standard curve (0.001, 0.01, 0.1, 1.0 ppb, Spex Certiprep Assurance, Lot #24-140PTM) was created using the HNO3 stock solution and measured for sample calibration. […]"}}}
{"compound": "C[NH+]1CCN(C(=O)C2C(C(=O)O)[C@H]3CC[C@@H]2O3)CC1", "note": "(stereo in doubt) [LB-100, 3-[(4-Methylpiperazin-1-yl)carbonyl]-7-oxabicyclo[2.2.1]heptane-2-carboxylic acid]", "values": [{"measurement": "IC50", "setting": "[1]", "value": 6.9, "unit": "µM"}, {"measurement": "reduction of glycogen consumption", "setting": "[2]", "value": "more than 2.7 fold"}, {"measurement": "reduction of α-D-Glucose consumption", "setting": "[2]", "value": "more than 6 fold"}, {"measurement": "Pt level in cells", "setting": "[3]", "value": "enhanced the uptake of Pt"}]}
